pIC50: −log10 of the molar value.
target: T1, L-CPT1 (human liver CPT1) (Homo sapiens, UniProt P50416); assay: L-CPT1 inhibition, spectrophotometric CPT activity assay with DTNB (Ellman's reagent); assay type: biochemical; conditions: cell-free extracts of P. pastoris expressing human liver CPT1; carnitine 500 μM, palmitoyl-CoA 80 μM, DTNB 300 μM, pH 7.4
T1 construct: made in house; host or cells: Pichia pastoris strain X-33 (pGAPZB/pGAPZA), crude cell-free extract
T1 sequence (P50416 1-773): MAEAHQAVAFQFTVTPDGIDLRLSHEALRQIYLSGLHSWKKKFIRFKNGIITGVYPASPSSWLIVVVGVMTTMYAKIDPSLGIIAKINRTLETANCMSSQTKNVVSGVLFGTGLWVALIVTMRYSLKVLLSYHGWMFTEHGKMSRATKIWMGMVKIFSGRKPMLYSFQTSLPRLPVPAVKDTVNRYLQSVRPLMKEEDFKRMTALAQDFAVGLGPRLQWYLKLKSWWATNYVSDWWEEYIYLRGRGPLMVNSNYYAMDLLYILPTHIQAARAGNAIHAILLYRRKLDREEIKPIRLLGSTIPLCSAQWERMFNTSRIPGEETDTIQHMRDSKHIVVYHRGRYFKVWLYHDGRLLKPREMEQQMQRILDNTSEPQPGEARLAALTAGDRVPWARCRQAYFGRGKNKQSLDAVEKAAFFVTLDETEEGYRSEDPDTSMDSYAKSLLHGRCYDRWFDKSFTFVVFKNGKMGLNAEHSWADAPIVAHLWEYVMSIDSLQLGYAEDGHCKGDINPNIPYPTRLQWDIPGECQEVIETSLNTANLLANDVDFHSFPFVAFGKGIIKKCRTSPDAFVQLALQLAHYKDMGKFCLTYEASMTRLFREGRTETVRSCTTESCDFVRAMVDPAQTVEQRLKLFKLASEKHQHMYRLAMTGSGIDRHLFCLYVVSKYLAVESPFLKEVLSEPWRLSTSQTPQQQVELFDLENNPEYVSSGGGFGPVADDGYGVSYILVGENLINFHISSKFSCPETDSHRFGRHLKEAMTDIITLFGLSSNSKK
Protocol: The following tests were carried out in order to determine the activity of the compounds of the present invention. Background information on the performed assays can be found in: Jackson et al., 1999, Biochem. J. 341, 483-489 and Jackson et al., 2000, J. Biol. Chem. 275, 19560-19566.
Human liver and muscle CPT1 cDNAs and rat CPT2 cDNA were subcloned in pGAPZB or pGAPZA, respectively. These plasmids were used to transform P. pastoris strain X-33 via electroporation after the preparation of electrocompetent cells. High copy number clones were selected where necessary using 0.5 or 1 mg/ml Zeocin. Cultures for activity measurements were induced for 16 h in YPD medium (1% yeast extract, 2% peptone, 2% glucose). Crude cell extracts were prepared by disrupting the cells with glass beads or French Press, depending on fermenter sizes. After centrifugation, the cell-free extracts were resuspended in cell breaking buffer (50 mM Tris, pH7.4, 100 mM KCl, 1 mM EDTA) in the presence of a protease inhibitor cocktail, before aliquoting and freezing at −20° C.
CPT activity was measured using a spectrophotometric assay using 5,5′-dithio-bis-(2-nitrobenzoic acid) (DTNB) also called Ellman's reagent. The HS-CoA released on the formation of acylcarnitine from carnitine (500 μM) and palmitoyl-CoA (80 μM) reduced DTNB (300 μM) forming 5-mercapto-(2-nitrobenzoic acid) which absorbed at 410 nm with a molar extinction coefficient of 13600 M^−1.cm^−1. The assay buffer contained 120 mM KCl, 25 mM Tris, pH 7.4, 1 mM EDTA. This assay was used for the identification of selective inhibitors of the liver CPT1 isoform versus the muscle CPT1 and CPT2 isoforms.

SMILES	pIC50
COc1ccc(Cl)cc1S(=O)(=O)N1CCOc2ccc(C(=O)Nc3ccc(C(=O)O)c(F)c3)cc21 [Example 2, 4-{[4-(5-Chloro-2-methoxy-benzenesulfonyl)-3,4-dihydro-2H-benzo[1,4]oxazine-6-carbonyl]-amino}-2-fluoro-benzoic acid]	7.11
COc1ccc(Cl)cc1S(=O)(=O)N1COc2ccc(C(=O)Nc3ccc(C(=O)O)c(F)c3)cc21 [Example 32, 4-{[3-(5-Chloro-2-methoxy-benzenesulfonyl)-2,3-dihydro-benzooxazole-5-carbonyl]-amino}-2-fluoro-benzoic acid]	6.85

Results, then the molecule that gave them:

pIC50	SMILES
7.25	COc1ccc(Cl)cc1S(=O)(=O)N1COCc2ccc(C(=O)Nc3ccc(C(=O)O)cc3)cc21 [Example 73, 4-{[1-(5-Chloro-2-methoxy-benzenesulfonyl)-1,4-dihydro-2H-benzo[d][1,3]oxazine-7-carbonyl]-amino}-benzoic acid]
7.64	O=C(O)Cc1csc(NC(=O)c2ccc3c(c2)N(S(=O)(=O)c2cccc(Cl)c2)CCO3)n1 [Example 92, (2-{[4-(3-Chloro-benzenesulfonyl)-3,4-dihydro-2H-benzo[1,4]oxazine-6-carbonyl]-amino}-thiazol-4-yl)-acetic acid]
7.80	COc1ccc(Cl)cc1S(=O)(=O)N1CC(C(=O)O)Oc2ccc(C(=O)Nc3cccc(F)c3)cc21 (centres unmarked) [Example 113, 4-(5-Chloro-2-methoxy-benzenesulfonyl)-6-(3-fluoro-phenylcarbamoyl)-3,4-dihydro-2H-benzo[1,4]oxazine-2-carboxylic acid]

From patent US7696200B2, “Bicyclic sulfonamide derivatives which are L-CPT1 inhibitors” (Hoffmann-La Roche Inc., priority 2006, dated 2010)
